Experimental findings from US20100129790A1, “Method for Determining Phospholipidosis” (TAKEDA PHARMACEUTICAL LIMITED, priority 2005, published 2010) are described below.

The structures appear in SMILES notation. Where two headings read alike, the source gives them in different places.

Series [1] deals with Crj:CD(SD)IGS rats. The settings on record: rat, in vivo.
In series [2] the test system is Crj:CD(SD)IGS rats. The settings on record: rat, in vivo. On the procedure:
After completion of the administration, in all animals, livers, kidneys, spleens, lungs and mesenteric lymph nodes were sampled, these sampled tissues were examined for histopathological changes by conventional methods of optical microscopy and electron microscopy. In addition, a blood smear sample (Giemsa stain sample) was prepared, and the vacuolated lymphocyte ratio of the peripheral blood was measured with observation under a microscope.
The source holds these as a separate data set.

Series [3] deals with blood. Description: GeneChip analysis of blood (Rat Expression Array 230A), 7-day administration. In kind it is in vivo. Conditions: rat blood 24 hr after 7 consecutive days of oral administration, pooled, 4 rats per group; dose per compound in table. How it is done:
(§1) After collection using PAXgene Blood RNA Tube (PreAnalytiX), the blood was stood for 2 hr or more, and cryopreserved at −80° C. Total RNA was extracted using a PAXgene Blood RNA Kit (PreAnalytiX). A sample for GeneChip analysis was prepared and analyzed according to the protocol provided by Affymetrix Inc. cDNA synthesis reaction was carried out using a SuperScript Choice system (Invitrogen), then biotin-labeled cRNA synthesis reaction was carried out using Enzo BioArray HighYield RNA Transcript Labeling Kit (Affymetrix), after which cRNA was fragmented and a labeled sample was prepared. The labeled sample was hybridized to Rat Expression Array 230A (RAE230A, Affymetrix), the array was stained, washed and scanned by GeneChip system (Affymetrix), and the following three image data were obtained from one sheet of array.
(§2) From the image data, measurement value (Signal), numerical data such as Signal Log Ratio and the like and determination data such as Detection, Change and the like were obtained using MicroarraySuite5.0 (parameter: Default value). Fold Change was calculated from Signal Log Ratio of the image data 2 using the conversion equation of Fold Change=2^Signal Log Ratio.
(§3) (*In GeneChip analysis using RAE230A, 11 sites per one measurement target sequence are measured, and the measurement results at 11 sites are combined to give one numerical value and determination data. RAE230A contains 15924 combinations of 11 site measurement sets, and each measurement set is referred to as a probe set.)
(§4) A probe set wherein two or more of the above-mentioned three image data satisfy the following three conditions was taken as a variation probe set.
(§5) 1. A probe set judged as Increase or Decrease by MicroarraySuite5.0 2. A probe set whose higher measurement value (Signal) was judged as Presence by MicroarraySuite5.0 3.
At 24 hr after completion of the oral administration for 7 consecutive days in Example 3, the blood was collected from the compound administration group and the control (non-administration) group (4 rats per group), which was pooled and subjected to GeneChip analysis in the same manner as in Example 2.

Series [4] concerns blood. In words: GeneChip analysis of blood (Rat Expression Array 230A), 3-day administration. In kind it is in vivo. The settings on record: rat blood 24 hr after 3 consecutive days of oral administration, pooled, 3 rats per group; dose per compound in table. How it is done: At 24 hr after completion of the oral administration for 3 consecutive days in Example 1, the blood was collected from the compound administration group and the control (non-administration) group (3 rats per group), which was pooled and subjected to GeneChip analysis.
as §1
1. data of staining by a method omitting fluorescence amplification reaction by antibody 2. data of staining by the method described in a manual for once performing fluorescence amplification reaction by antibody 3. data of staining by a method for twice performing fluorescence amplification reaction by antibody
as §2, §3, §4, §5

On to `CCCCc1oc2ccccc2c1C(=O)c1cc(I)c(OCCN(CC)CC)c(I)c1` [Amiodarone, amiodarone], for which, in series [1], the “Histopathological findings (PLsis) Liver” value is reported as “−”, the “Histopathological findings (PLsis) Lung” value is recorded as “+”, the “Histopathological findings (PLsis) Lymph node” value is “+” and the “Histopathological findings (PLsis) Others” value is on record as “−”. Moreover, the “Histopathological findings (PLsis) Spleen” value in series [1] is “+”. Further, in series [2], the “Histopathological findings (PLsis) Kidney” value is recorded as “−”, the “Histopathological findings (PLsis) Liver” value is listed as “−”, the “Histopathological findings (PLsis) Lung” value is “++” and the “Histopathological findings (PLsis) Lymph node” value is given as “++”. Besides, the “Histopathological findings (PLsis) Spleen” value in series [2] is listed as “−”. In series [3], the “Number of expression variation probe sets, Decreased expression” value (from here on “Number … Decreased expression”) is reported as 457 and the “Number of expression variation probe sets, Increased expression” value (shortened to “Number … Increased expression”) came to 515. Further, in series [4], the “Number … Decreased expression” value was 282 and the “Number … Increased expression” value is on record as 613.
Regarding `CCN(CC)CCCC(C)Nc1ccnc2cc(Cl)ccc12` (stereo not drawn) [Chloroquine, chloroquine], in series [1], the “Histopathological findings (PLsis) Liver” value is reported as “−”, the “Histopathological findings (PLsis) Lung” value was “−”, the “Histopathological findings (PLsis) Lymph node” value is recorded as “+” and the “Histopathological findings (PLsis) Others” value is “−”. The “Histopathological findings (PLsis) Spleen” value in series [1] was “+”. Further, in series [2], the “Histopathological findings (PLsis) Kidney” value is “−”, the “Histopathological findings (PLsis) Liver” value was “+”, the “Histopathological findings (PLsis) Lung” value was “−” and the “Histopathological findings (PLsis) Lymph node” value was “−”. Besides, the “Histopathological findings (PLsis) Spleen” value in series [2] is “+”. Also, in series [3], the “Number … Decreased expression” value was found to be 179 and the “Number … Increased expression” value is recorded as 310. Also, in series [4], the “Number … Decreased expression” value is given as 318 and the “Number … Increased expression” value worked out at 382.
Turning to `CNCCC(Oc1ccc(C(F)(F)F)cc1)c1ccccc1` (stereo not drawn) [Fluoxetine, fluoxetine], in series [1], the “Histopathological findings (PLsis) Liver” value is given as “+”, the “Histopathological findings (PLsis) Lung” value is given as “+”, the “Histopathological findings (PLsis) Lymph node” value is recorded as “+” and the “Histopathological findings (PLsis) Others” value is listed as “brain”. In addition, the “Histopathological findings (PLsis) Spleen” value in series [1] was “−”. In series [4], the “Number … Decreased expression” value is 391 and the “Number … Increased expression” value turned out to be 372.
For the compound `CN(C)CCCN1c2ccccc2CCc2ccccc21` [Imipramine, imipramine], in series [2], the “Histopathological findings (PLsis) Kidney” value is “−”, the “Histopathological findings (PLsis) Liver” value is on record as “++”, the “Histopathological findings (PLsis) Lung” value is “+” and the “Histopathological findings (PLsis) Lymph node” value is “−”. Further, the “Histopathological findings (PLsis) Spleen” value in series [2] is “−”. In series [3], the “Number … Decreased expression” value was 320 and the “Number … Increased expression” value is recorded as 123.
Regarding `C1CCC(C(CC2CCCCN2)C2CCCCC2)CC1` (stereo not drawn) [Perhexiline, perhexiline], in series [1], the “Histopathological findings (PLsis) Liver” value is recorded as “−”, the “Histopathological findings (PLsis) Lung” value was “+”, the “Histopathological findings (PLsis) Lymph node” value was “+” and the “Histopathological findings (PLsis) Others” value is given as “−”. In addition, in series [1], the “Histopathological findings (PLsis) Spleen” value is recorded as “+”. In series [2], the “Histopathological findings (PLsis) Kidney” value is “−”, the “Histopathological findings (PLsis) Liver” value is “−”, the “Histopathological findings (PLsis) Lung” value is “+” and the “Histopathological findings (PLsis) Lymph node” value is on record as “+”. Besides, the “Histopathological findings (PLsis) Spleen” value in series [2] is recorded as “−”. In series [3], the “Number … Decreased expression” value turned out to be 83 and the “Number … Increased expression” value worked out at 49. Further, in series [4], the “Number … Decreased expression” value came out at 179 and the “Number … Increased expression” value was determined as 310.
As for `CCN(CC)CCCC(C)Nc1c2ccc(Cl)cc2nc2ccc(OC)cc12` (stereo not drawn) [Quinacrine, quinacrine], in series [1], the “Histopathological findings (PLsis) Liver” value is given as “+”, the “Histopathological findings (PLsis) Lung” value is “+”, the “Histopathological findings (PLsis) Lymph node” value is given as “+” and the “Histopathological findings (PLsis) Others” value is “−”. Besides, the “Histopathological findings (PLsis) Spleen” value in series [1] is “−”. In series [2], the “Histopathological findings (PLsis) Kidney” value was “+”, the “Histopathological findings (PLsis) Liver” value is given as “++”, the “Histopathological findings (PLsis) Lung” value is “+” and the “Histopathological findings (PLsis) Lymph node” value was “−”. In addition, in series [2], the “Histopathological findings (PLsis) Spleen” value is reported as “+”. In addition, in series [3], the “Number … Decreased expression” value was found to be 103 and the “Number … Increased expression” value came to 258. Further, in series [4], the “Number … Decreased expression” value is reported as 392 and the “Number … Increased expression” value was 240.
`CC/C(=C(\c1ccccc1)c1ccc(OCCN(C)C)cc1)c1ccccc1` [Tamoxifen, tamoxifen]: in series [1], the “Histopathological findings (PLsis) Liver” value is listed as “+”, the “Histopathological findings (PLsis) Lung” value is “+”, the “Histopathological findings (PLsis) Lymph node” value is listed as “+” and the “Histopathological findings (PLsis) Others” value is on record as “−”. The “Histopathological findings (PLsis) Spleen” value in series [1] is given as “−”. Also, in series [2], the “Histopathological findings (PLsis) Kidney” value is given as “−”, the “Histopathological findings (PLsis) Liver” value is “−”, the “Histopathological findings (PLsis) Lung” value was “+” and the “Histopathological findings (PLsis) Lymph node” value is reported as “++”. Moreover, the “Histopathological findings (PLsis) Spleen” value in series [2] is “−”. Further, in series [3], the “Number … Decreased expression” value came out at 368 and the “Number … Increased expression” value was found to be 546. Further, in series [4], the “Number … Decreased expression” value came to 94 and the “Number … Increased expression” value was determined as 258.
